Experimental data from patent US20240246979A1, “cGAS INHIBITORS” (Eli Lilly and Company, priority 2022, published 2024).

Legend:
cGAS [1] = target: T1, cGAS (Homo sapiens, UniProt Q8N884); test: Cellular assay to measure cGAS activity (IFNb AlphaLISA in THP1 cells stimulated by RDG-Adenovirus-GFP); type: cell-based; set-up: host or cells: THP1 cells differentiated with PMA and stimulated with RDG-Adenovirus-GFP; conditions: PMA-differentiated THP1 cells, RDG-Adenovirus-GFP at 1000 MOI; inhibition of IFNb production as marker for cGAS activity
In short: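 PMA-differentiated THP1 cells were infected with RDG-Adenovirus-GFP at 1000 MOI for 4 h, then exposed overnight to test compounds. IFNb in the supernatant was quantified by AlphaLISA as a cGAS activity marker, and IC50 was fitted with a 4-parameter logistic equation.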

cGAS [2] = target: T1, cGAS; test: In vitro inhibition assay of cGAS activity (cGAMP production, RapidFire mass spectrometry); type: biochemical; set-up: Insert cDNA encoding full-length of human cGAS; His6; made in house; host or cells: E. coli BL21(DE3); conditions: 10 nM recombinant human cGAS, 60 nM 75-bp dsDNA, 50 μM ATP, 50 μM GTP, 3 hrs
In short: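 His6-tagged full-length human cGAS (10 nM, E. coli-expressed) was incubated for 3 hrs at ambient temperature with 60 nM 75-bp dsDNA, 50 μM ATP and 50 μM GTP in Tris pH 7.5/MgCl2 buffer with compound dilutions. cGAMP was quantified by RapidFire mass spectrometry against an internal standard, and IC50 was obtained by 4-parameter logistic fit.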

T1 sequence (Q8N884 whole entry): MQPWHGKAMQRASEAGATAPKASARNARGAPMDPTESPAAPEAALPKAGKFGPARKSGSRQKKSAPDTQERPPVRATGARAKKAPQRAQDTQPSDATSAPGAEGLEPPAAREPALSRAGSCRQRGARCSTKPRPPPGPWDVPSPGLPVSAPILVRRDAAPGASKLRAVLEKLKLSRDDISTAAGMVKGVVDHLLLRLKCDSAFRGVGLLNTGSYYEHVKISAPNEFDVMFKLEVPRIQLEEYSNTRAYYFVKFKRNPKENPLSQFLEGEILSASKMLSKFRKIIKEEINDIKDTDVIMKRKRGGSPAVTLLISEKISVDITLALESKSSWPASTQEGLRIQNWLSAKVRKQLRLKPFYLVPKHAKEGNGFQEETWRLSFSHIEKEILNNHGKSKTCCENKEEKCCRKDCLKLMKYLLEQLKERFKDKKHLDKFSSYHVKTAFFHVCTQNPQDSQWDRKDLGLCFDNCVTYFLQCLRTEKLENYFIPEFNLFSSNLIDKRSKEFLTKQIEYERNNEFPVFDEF

For C[C@@H]1C(=O)NCCc2[nH]c3c(Cl)c(Cl)cc(N[C@H]4CCOC4)c3c21 (single isomer, unassigned) [Example 62], the IC50 (cGAS [1]) was 1900 nM and the IC50 (cGAS [2]) was 44.5 nM.

In the case of Cn1c2c(c3c(CC#N)cc(Cl)c(Cl)c31)CC(=O)NCC2CCO (stereo not drawn) [Example 121, 2-(7,8-Dichloro-5-(2-hydroxyethyl)-6-methyl-2-oxo-1,2,3,4,5,6-hexahydroazepino[4,5-b]indol-10-yl)acetonitrile], the IC50 (cGAS [1]) is reported as 180 nM and the IC50 (cGAS [2]) is reported as 17.2 nM.

For CCOC(=O)CC1CNC(=O)Cc2c1[nH]c1c(Cl)c(Cl)cc(-c3cnn(C)n3)c21 (racemic) [Example 4, Ethyl 2-(7,8-dichloro-10-(2-methyl-2H-1,2,3-triazol-4-yl)-2-oxo-1,2,3,4,5,6-hexahydroazepino[4,5-b]indol-5-yl)acetate], the IC50 (cGAS [1]) was 3570 nM and the IC50 (cGAS [2]) was 26.2 nM.

With COCCOc1cc(Cl)c(Cl)c2c1c1c(n2C)CCNC(=O)C1C (stereo not drawn) [Example 97, 7,8-Dichloro-10-(2-methoxyethoxy)-1,6-dimethyl-3,4,5,6-tetrahydroazepino[4,5-b]indol-2(1H)-one] the IC50 (cGAS [1]) was 1150 nM and the IC50 (cGAS [2]) was 18 nM.

C[C@H]1CNC(=O)[C@H](C)c2c1[nH]c1c(Cl)c(Cl)cc(NC(=O)CO)c21 (racemic) [Example 158, trans-N-(7,8-dichloro-1,5-dimethyl-2-oxo-1,2,3,4,5,6-hexahydroazepino[4,5-b]indol-10-yl)-2-hydroxyacetamide] showed an IC50 (cGAS [1]) of 341 nM and an IC50 (cGAS [2]) of 19.7 nM.

In the case of CC1C(=O)NCCc2[nH]c3c(Cl)c(Cl)cc(OC4COC4)c3c21 (stereo not drawn) [Example 183, 7,8-Dichloro-1-methyl-10-(oxetan-3-yloxy)-3,4,5,6-tetrahydroazepino[4,5-b]indol-2(1H)-one], the IC50 (cGAS [1]) is reported as 1850 nM and the IC50 (cGAS [2]) is reported as 40.9 nM.

In the case of CCC1CNC(=O)Cc2c1[nH]c1c(Cl)c(Cl)cc(-c3cnn(C)n3)c21 (stereo not drawn) [Example 162, 7,8-Dichloro-5-ethyl-10-(2-methyl-2H-1,2,3-triazol-4-yl)-3,4,5,6-tetrahydroazepino[4,5-b]indol-2(1H)-one], the IC50 (cGAS [1]) is reported as 1280 nM and the IC50 (cGAS [2]) is reported as 48.7 nM.

Cn1ncc(-c2cc(Cl)c(Cl)c3c2c2c4n3CCC4CNC(=O)C2)n1 (stereo not drawn) [Example 116, 8,9-Dichloro-11-(2-methyl-2H-1,2,3-triazol-4-yl)-1,3,4,4a, 5,6-hexahydro-2H-azepino[3,4,5-gh]benzo[b]pyrrolizin-2-one] gave an IC50 (cGAS [1]) of 640 nM and an IC50 (cGAS [2]) of 14.8 nM.

In the case of Cn1ncc(-c2cc(Cl)c(Cl)c3c2c2c(n3C)C(CC(C)(C)O)CNC(=O)C2)n1 (stereo not drawn) [Example 105, 7,8-Dichloro-5-(2-hydroxy-2-methylpropyl)-6-methyl-10-(2-methyl-2H-1,2,3-triazol-4-yl)-3,4,5,6-tetrahydroazepino[4,5-b]indol-2(1H)-one], the IC50 (cGAS [1]) is reported as 3250 nM and the IC50 (cGAS [2]) is reported as 38.8 nM.

For C[C@@H]1CNC(=O)[C@@H](C)c2c1[nH]c1c(Cl)c(Cl)cc(CC#N)c21 (single isomer, unassigned) [Example 150], the IC50 (cGAS [1]) was 2120 nM and the IC50 (cGAS [2]) was 25.9 nM.

N#CCc1cc(Cl)c(Cl)c2c1c1c3n2CCC3CNC(=O)C1 (stereo not drawn) [Example 114, 2-(8,9-Dichloro-2-oxo-2,3,4,4a, 5,6-hexahydro-1H-azepino[3,4,5-gh]benzo[b]pyrrolizin-11-yl)acetonitrile] gave an IC50 (cGAS [1]) of 1270 nM and an IC50 (cGAS [2]) of 38.4 nM.

For CC1C(=O)NCCc2[nH]c3c(Cl)c(Cl)cc(OC4CCOC4)c3c21 (mixture of isomers) [Example 86, 7,8-Dichloro-1-methyl-10-((tetrahydrofuran-3-yl)oxy)-3,4,5,6-tetrahydroazepino[4,5-b]indol-2(1H)-one], the IC50 (cGAS [1]) was 3470 nM and the IC50 (cGAS [2]) was 51.9 nM.

Compound COCCOc1cc(Cl)c(Cl)c2[nH]c3c(c12)[C@H](C)C(=O)NCC3(C)C (single isomer, unassigned) [Example 184, (S)-7,8-Dichloro-10-(2-methoxyethoxy)-1,5,5-trimethyl-3,4,5,6-tetrahydroazepino[4,5-b]indol-2(1H)-one or (R)-7,8-dichloro-10-(2-methoxyethoxy)-1,5,5-trimethyl-3,4,5,6-tetrahydroazepino[4,5-b]indol-2(1H)-one] has an IC50 (cGAS [1]) of 1370 nM and an IC50 (cGAS [2]) of 17.4 nM.

CN(C)C(=O)CC1CNC(=O)Cc2c1[nH]c1c(Cl)c(Cl)cc(CC#N)c21 (stereo not drawn) [Example 117, 2-(7,8-Dichloro-10-(cyanomethyl)-2-oxo-1,2,3,4,5,6-hexahydroazepino[4,5-b]indol-5-yl)-N,N-dimethylacetamide] showed an IC50 (cGAS [1]) of 1320 nM and an IC50 (cGAS [2]) of 18.6 nM.

For CC(C)(O)C[C@@H]1CNC(=O)Cc2c1[nH]c1c(Cl)c(Cl)cc(OCC#N)c21 (single isomer, unassigned) [Example 109], the IC50 (cGAS [1]) was 1860 nM and the IC50 (cGAS [2]) was 159 nM.

With C[C@@H]1C(=O)NCCc2[nH]c3c(Cl)c(Cl)cc(OCC#N)c3c21 (single isomer, unassigned) [Example 16B] the IC50 (cGAS [1]) was 1010 nM and the IC50 (cGAS [2]) was 998 nM.

C[C@H]1C(=O)NCC(C)(C)c2[nH]c3c(Cl)c(Cl)cc(NC(=O)CO)c3c21 (single isomer, unassigned) [Example 133] gave an IC50 (cGAS [1]) of 820 nM and an IC50 (cGAS [2]) of 20 nM.

In the case of C[C@@H]1C(=O)NCCc2[nH]c3c(Cl)c(Cl)cc(N[C@H]4CCOC4)c3c21 (single isomer, unassigned) [Example 63], the IC50 (cGAS [1]) is reported as > 10000 nM and the IC50 (cGAS [2]) is reported as 1670 nM.

Work on COCCOc1cc(Cl)c(Cl)c2[nH]c3c(c12)[C@H](C)C(=O)NCC3 (single isomer, unassigned) [Example 80] yielded an IC50 (cGAS [1]) of 280 nM and an IC50 (cGAS [2]) of 8.12 nM.

With Cc1conc1Nc1cc(Cl)c(Cl)c2[nH]c3c(c12)C(C)C(=O)NCC3 (stereo not drawn) [Example 67, 7,8-Dichloro-1-methyl-10-((4-methylisoxazol-3-yl)amino)-3,4,5,6-tetrahydroazepino[4,5-b]indol-2(1H)-one] the IC50 (cGAS [1]) was 1030 nM and the IC50 (cGAS [2]) was 30.6 nM.

Work on COCCNc1cc(Cl)c(Cl)c2c1c1c(n2C(F)F)CCNC(=O)C1C (stereo not drawn) [Example 141, 7,8-Dichloro-6-(difluoromethyl)-10-((2-methoxyethyl)amino)-1-methyl-3,4,5,6-tetrahydroazepino[4,5-b]indol-2(1H)-one] yielded an IC50 (cGAS [1]) of 2440 nM and an IC50 (cGAS [2]) of 35.4 nM.

In the case of COCCNc1cc(Cl)c(Cl)c2[nH]c3c(c12)[C@@H](C)C(=O)NCC3 (single isomer, unassigned) [Example 47], the IC50 (cGAS [1]) is reported as 596 nM and the IC50 (cGAS [2]) is reported as 20.1 nM.

C[C@H]1C(=O)NCCc2[nH]c3c(Cl)c(Cl)cc(-c4cnn(C)n4)c3c21 (single isomer, unassigned) [Example 37] was tested, and the IC50 (cGAS [1]) was 802 nM and the IC50 (cGAS [2]) was 30.4 nM.

For O=C1Cc2c([nH]c3c(Cl)c(Cl)cc(-c4cnco4)c23)CCN1 [Example 27, 7,8-Dichloro-10-(oxazol-5-yl)-3,4,5,6-tetrahydroazepino[4,5-b]indol-2(1H)-one], the IC50 (cGAS [1]) was > 10000 nM and the IC50 (cGAS [2]) was 110 nM.

COCC(=O)Nc1cc(Cl)c(Cl)c2[nH]c3c(c12)[C@@H](C)C(=O)NCC3 (single isomer, unassigned) [Example 40] gave an IC50 (cGAS [1]) of 787 nM and an IC50 (cGAS [2]) of 27.3 nM.

For Cn1ncc(-c2cc(Cl)c(Cl)c3[nH]c4c(c23)CC(=O)NCC4CC(=O)O)n1 (racemic) [Example 5, 2-(7,8-Dichloro-10-(2-methyl-2H-1,2,3-triazol-4-yl)-2-oxo-1,2,3,4,5,6-hexahydroazepino[4,5-b]indol-5-yl)acetic acid], the IC50 (cGAS [1]) was > 10000 nM and the IC50 (cGAS [2]) was 5.12 nM.

Cn1ncc(-c2cc(Cl)c(Cl)c3[nH]c4c(c23)CC(=O)NC[C@H]4CC(C)(C)O)n1 (single isomer, unassigned) [Example 103] showed an IC50 (cGAS [1]) of 398 nM and an IC50 (cGAS [2]) of 17.6 nM.

COCCOc1cc(Cl)c(Cl)c2[nH]c3c(c12)[C@H](C)C(=O)NCC3 (single isomer, unassigned) [Example 81] showed an IC50 (cGAS [1]) of 7060 nM and an IC50 (cGAS [2]) of 1200 nM.

C[C@@H]1C(=O)NCCc2[nH]c3c(Cl)c(Cl)cc(OCc4cocn4)c3c21 (single isomer, unassigned) [Example 178, (S)-7,8-Dichloro-1-methyl-10-(oxazol-4-ylmethoxy)-3,4,5,6-tetrahydroazepino[4,5-b]indol-2(1H)-one or (R)-7,8-dichloro-1-methyl-10-(oxazol-4-ylmethoxy)-3,4,5,6-tetrahydroazepino[4,5-b]indol-2(1H)-one] gave an IC50 (cGAS [1]) of 311 nM and an IC50 (cGAS [2]) of 10.8 nM.

Cn1c2c(c3c(OCC#N)cc(Cl)c(Cl)c31)CC(=O)NC[C@H]2CC(C)(C)O (single isomer, unassigned) [Example 111, (R)-2-((7,8-Dichloro-5-(2-hydroxy-2-methylpropyl)-6-methyl-2-oxo-1,2,3,4,5,6-hexahydroazepino[4,5-b]indol-10-yl)oxy)acetonitrile or (S)-2-((7,8-Dichloro-5-(2-hydroxy-2-methylpropyl)-6-methyl-2-oxo-1,2,3,4,5,6-hexahydroazepino[4,5-b]indol-10-yl)oxy)acetonitrile] was tested, and the IC50 (cGAS [1]) was 231 nM and the IC50 (cGAS [2]) was 13.1 nM.

In the case of CC(C)(O)C[C@@H]1CNC(=O)Cc2c1[nH]c1c(Cl)c(Cl)cc(CC#N)c21 (single isomer, unassigned) [Example 106], the IC50 (cGAS [1]) is reported as 861 nM and the IC50 (cGAS [2]) is reported as 188 nM.

For COCC(=O)Nc1cc(Cl)c(Cl)c2[nH]c3c(c12)[C@@H](C)C(=O)NCC3 (single isomer, unassigned) [Example 41], the IC50 (cGAS [1]) was > 10000 nM and the IC50 (cGAS [2]) was 7170 nM.

CN(C)CCC1CNC(=O)Cc2c1[nH]c1c(Cl)c(Cl)cc(-c3cnn(C)n3)c21 (stereo not drawn) [Example 118, 7,8-Dichloro-5-(2-(dimethylamino)ethyl)-10-(2-methyl-2H-1,2,3-triazol-4-yl)-3,4,5,6-tetrahydroazepino[4,5-b]indol-2(1H)-one] showed an IC50 (cGAS [1]) of 577 nM and an IC50 (cGAS [2]) of 42.4 nM.
